These results are taken from PubChem BioAssay (NCI).

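Results reflect a 48-hour exposure of cells in 96-well plates to compound at five concentrations. The concentration for full growth arrest is given as TGI.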 Bounds are passed on as bounds.

Some test systems named below: SN12C renal; SR leukemia; SF-268 CNS; UO-31 renal; T-47D breast; K-562 leukemia; NCI-H23 lung; MDA-MB-231 breast; SF-295 CNS; RPMI-8226 leukemia; A498 renal; HCT-116 colon; MOLT-4 leukemia; EKVX NSCLC; UACC-62 melanoma; NCI-H460 lung; U251 CNS.
What all share (assay): NCI-60 cell line screen, 48 h

As to `CCc1n[nH]c(=S)n1/N=C\c1ccc(-c2ccccc2Cl)o1`, the TGI is above 100 µM with SN12C renal; 53.5 µM in the assay on SR leukemia; above 100 µM in the assay with SF-268 CNS; above 100 µM in the assay on UO-31 renal; 87.5 µM in the assay with T-47D breast; 53.2 µM in the assay on K-562 leukemia. In addition, the TGI with NCI-H23 lung is 82 µM; in the assay on MDA-MB-231 breast it was above 100 µM; in the assay on SF-295 CNS, above 100 µM; in the assay with RPMI-8226 leukemia, 51.3 µM; in the assay on A498 renal it was above 100 µM; with HCT-116 colon it was 66.6 µM. The TGI in the assay on MOLT-4 leukemia was 45.6 µM; with EKVX NSCLC, above 100 µM; in the assay on UACC-62 melanoma, above 100 µM; with NCI-H460 lung, above 100 µM; in the assay with U251 CNS it was 97.4 µM.

Consider `COC(=O)[C@@H]1CN(C(=O)c2ccccc2)C(=O)N1`, for which the TGI in the assay with SN12C renal, in the assay on SR leukemia, with SF-268 CNS, with UO-31 renal, with T-47D breast and in the assay with K-562 leukemia was above 100 µM in each case. Besides, the TGI in the assay on NCI-H23 lung, in the assay with MDA-MB-231 breast, in the assay with SF-295 CNS, in the assay with RPMI-8226 leukemia, in the assay with A498 renal and in the assay with HCT-116 colon was above 100 µM each time. The TGI in the assay on MOLT-4 leukemia, in the assay on EKVX NSCLC, in the assay with UACC-62 melanoma, in the assay with NCI-H460 lung and in the assay with U251 CNS was above 100 µM in each case.

In the case of `CC1=NN(c2nc(N)nc(CCl)n2)CC1`, the TGI was above 100 µM in the assay with SN12C renal; 61.7 µM with SR leukemia; above 100 µM in the assay on SF-268 CNS; 20.5 µM in the assay with UO-31 renal; above 100 µM with T-47D breast; 32.7 µM in the assay with K-562 leukemia. The TGI is 41.2 µM with NCI-H23 lung; above 100 µM in the assay with MDA-MB-231 breast; above 100 µM in the assay on SF-295 CNS; above 100 µM with RPMI-8226 leukemia; above 100 µM in the assay with A498 renal; 87.4 µM in the assay with HCT-116 colon. In addition, the TGI with MOLT-4 leukemia was 68.9 µM; with EKVX NSCLC, 35.8 µM; in the assay with UACC-62 melanoma it was 31 µM; with NCI-H460 lung, 48.8 µM; in the assay on U251 CNS, above 100 µM.

In the case of `O=C(O)CN1CCNCCN(CP(=O)(O)O)CC1`, the TGI in the assay on SN12C renal, with SR leukemia, in the assay on SF-268 CNS, with UO-31 renal, in the assay on T-47D breast and in the assay with K-562 leukemia was above 100 µM in each case. Also, the TGI in the assay on NCI-H23 lung was above 100 µM; in the assay on MDA-MB-231 breast, above 100 µM; in the assay with SF-295 CNS, above 100 µM; with RPMI-8226 leukemia it was above 100 µM; in the assay on A498 renal, 99.1 µM; in the assay on HCT-116 colon, above 27.5 µM. In addition, the TGI with MOLT-4 leukemia, in the assay with EKVX NSCLC, in the assay with UACC-62 melanoma, with NCI-H460 lung and in the assay with U251 CNS was above 100 µM throughout.

As to `CC1Cc2c(Br)nc(N)nc2NC1=O` (stereo unspecified), the TGI in the assay with SN12C renal, in the assay on SR leukemia, in the assay on SF-268 CNS, in the assay on UO-31 renal, with T-47D breast and with K-562 leukemia was above 100 µM each time. Further, the TGI in the assay on NCI-H23 lung, in the assay on MDA-MB-231 breast, in the assay with SF-295 CNS, with RPMI-8226 leukemia, with A498 renal and with HCT-116 colon was above 100 µM throughout. For the same molecule, the TGI in the assay with MOLT-4 leukemia, in the assay with EKVX NSCLC, in the assay on UACC-62 melanoma, with NCI-H460 lung and with U251 CNS was above 100 µM each time.

As for `Cc1ccc([N+](=O)[O-])c2c(NCCNC(=O)Cn3ccnc3[N+](=O)[O-])ccnc12`, the TGI in the assay with SN12C renal, with SR leukemia, in the assay with SF-268 CNS, in the assay on UO-31 renal, with T-47D breast and in the assay with K-562 leukemia was above 100 µM each time. Moreover, the TGI is above 100 µM with NCI-H23 lung; above 100 µM with MDA-MB-231 breast; 43.3 µM with SF-295 CNS; above 100 µM in the assay on RPMI-8226 leukemia; above 100 µM with A498 renal; above 100 µM in the assay with HCT-116 colon. The TGI in the assay with MOLT-4 leukemia, in the assay on EKVX NSCLC, in the assay on UACC-62 melanoma, with NCI-H460 lung and in the assay on U251 CNS was above 100 µM each time.

`O=C1/C(=C\c2ccc(Cl)cc2Cl)Sc2scc(-c3cccc([N+](=O)[O-])c3)[n+]21`: the TGI with SN12C renal was 18.4 µM; in the assay with SR leukemia, above 100 µM; in the assay with SF-268 CNS, 57.8 µM; with UO-31 renal it was 13.8 µM; with T-47D breast, 57.8 µM; in the assay with K-562 leukemia, above 100 µM. Also, the TGI is 31.5 µM in the assay with NCI-H23 lung; 25.1 µM with MDA-MB-231 breast; above 68.9 µM in the assay with SF-295 CNS; 26.9 µM in the assay on RPMI-8226 leukemia; above 100 µM in the assay on A498 renal; 17.8 µM in the assay with HCT-116 colon. For the same molecule, the TGI in the assay on MOLT-4 leukemia came out at 3.94 µM; in the assay with EKVX NSCLC, 14.3 µM; with UACC-62 melanoma, 21.6 µM; in the assay with NCI-H460 lung, 29.7 µM; in the assay with U251 CNS, 44.1 µM.

For `CC1=NN(C(=O)CC(=O)Nc2ccccc2C)C(=O)C1N=Nc1ccc(C(=O)O)cc1` (stereo unspecified), the TGI in the assay with SN12C renal, in the assay on SR leukemia, in the assay on SF-268 CNS, in the assay with UO-31 renal, in the assay on T-47D breast and in the assay with K-562 leukemia was above 100 µM in each case. Moreover, the TGI with NCI-H23 lung, in the assay with MDA-MB-231 breast, in the assay on SF-295 CNS, with RPMI-8226 leukemia, in the assay on A498 renal and in the assay with HCT-116 colon was above 100 µM each time. Besides, the TGI in the assay with MOLT-4 leukemia, with EKVX NSCLC, in the assay with UACC-62 melanoma, with NCI-H460 lung and in the assay with U251 CNS was above 100 µM in each case.
